From patent US11008572B2, “Methods and compositions for modulating splicing” (SKYHAWK THERAPEUTICS, INC., priority 2017, dated 2021)

How the values were obtained:
A673 xenografts = assay: A673 xenograft tumor growth inhibition; assay type: in vivo; conditions: immunocompromised nude mice with pre-existing A673 xenografts
Protocol: Dose range and time course studies comparing anti-neoplastic effects of SMSM-167 and SMSM-151 against vehicle were conducted.
Female NCrNu mice were used. Age range of enrolment was 7-10 weeks. A total of 75animals were for the studies.
The A673 tumor cell line was maintained in vitro as a monolayer culture. […] The cells growing in an exponential growth phase were harvested and counted for tumor inoculation.
Each mouse were inoculated into aright flank with the single cell suspension of 95% viable tumor cells (5×10^6 cells/mouse) in serum-free RPMI 1640 Media for tumor development. Treatments were administered when mean tumor size reached approximately 75 mm^3. […]
Body weight were measured prior to tumor inoculation and prior to the treatment administration and then daily. Tumor size were measured 2-3 times per week in two dimensions using a caliper, and the volume were expressed in mm^3 using the formula: V=0.5×a×b^2 where a and b are the long and short diameters of the tumor, respectively. […]
Studies were performed to assess the effects of in vivo SMSM treatment on glioblastoma, breast, pancreatic, prostate, melanoma, lymphoma and Ewing sarcoma tumors. […] After SMSM treatment, mRNA was isolated from the xenografts and was analyzed by qRT-PCR.
Tumor size was measured 2 times per week in two dimensions using a caliper. […]

IKBKAP^Δ20 mRNA = assay: IKBKAP splicing assay, qPCR; assay type: cell-based; conditions: 24 hours of incubation
Protocol: (§1) Various cells lines were treated with the SMSMs described herein. RNA was then isolated, cDNA synthesized, qPCR performed and the levels of IKBKAP targets of the SMSMs were determined.
(§2) On the day of the experiment, a 96-well plate was seeded with the cell lines of interest. The cells were diluted with full growth media to a concentration of 2.0×10^5 cells/mL and 100 μL of cells were added to each well (20,000 cells per well). The cells were treated with a compound immediately after plating.
(§3) The compounds were then added to the cell plate using the HP compound dispenser. In the initial experiment, a top concentration of 10 μM and an 8 point 4-fold dilution scheme was used. The stock compounds were made at a concentration of 5 mM, and the DMSO concentration was set to 0.2%. DMSO was used to normalize all the compound-containing wells and the untreated cells.
(§4) The treated cells were incubated at 37° C. in a 5% CO2 incubator for the desired amount of time. Plates were placed in a plastic bag with a wet paper towel to prevent evaporation.
(§5) RNA was isolated using the Cells to CT kit (ThermoFisher, AM1728). The cells were washed once with 100 μL cold PBS. 50 μL of lysis buffer was added to each well/tube (49.5 μL lysis buffer+0.5 μL DNase I per well/tube). The lysis reaction was mixed and incubated at room temperature for 5 minutes. 5 μL of stop solution was added directly into each cell lysis reaction and mixed by pipetting up and down 5 times. The plates/tubes were incubated at room temperature for 2 minutes then placed on ice if the cDNA synthesis was to be performed immediately. Otherwise, the plates/tubes were stored at −80° C.
(§6) cDNA synthesis reactions were then performed. 40 μL RT master mix was added to PCR tubes or plate wells. 10 μL of RNA was added to each tube/well. The RT thermal cycler program was then run and tubes or plate wells were incubated at 37° C. for 1 hour, then at 95° C. for 5 minutes to deactivate the enzyme.
(§7) The qPCR was performed using a QuantStudio 6 instrument (ThermoFisher) and the following cycling conditions and according to the tables below. All samples and standards were analyzed in triplicate. Cycle 1: 2 minutes at 50° C. Cycle 2: 10 minutes at 95° C. Cycle 3 (repeat 40 times): 15 seconds at 95° C., 1 minute at 60° C.
(§8) The determined IKBKAP^FL and […] isoform quantities were then used to determine the IKBKAP^FL: IKBKAP^Δ20 ratio at increasing SMSM compound concentrations. The PPIA quantities were used in the normalization to account of cell proliferation effects of the compounds.
(§9) An assay to measure the IKBKAP^FL mRNA and IKBKAP^Δ20 mRNA simultaneously in cell wells was performed. The RNA values were measured relative to DMSO control and also included a housekeeping gene, PPIA to ensure data was consistent. The mRNA values were measured after 24 hours of incubation with the SMSM compounds.

IKBKAP^FL mRNA = assay: IKBKAP splicing assay, qPCR; assay type: cell-based; conditions: 24 hours of incubation
Protocol: as §1, §2, §3, §4, §5, §6, §7, §8, §9

A375 xenografts = assay: A375 xenograft tumor growth inhibition; assay type: in vivo; conditions: immunocompromised nude mice with pre-existing A375 xenografts
Protocol: Studies were performed to assess the effects of in vivo SMSM treatment on glioblastoma, breast, pancreatic, prostate, melanoma, lymphoma and Ewing sarcoma tumors. Studies were also performed to assess the effects of in vivo SMSM treatment on mRNA levels. Immunocompromised nude mice with pre-existing glioblastoma, breast, pancreatic, prostate, melanoma, lymphoma and Ewing sarcoma xenografts were treated with vehicle or SMSMs. Tumor tissues from subcutaneous xenografts were broken into a powder using a BioPulverizer (Biospec Products, Inc.). After SMSM treatment, mRNA was isolated from the xenografts and was analyzed by qRT-PCR.
Tumor size was measured 2 times per week in two dimensions using a caliper. Studies were terminated when the tumor size in the vehicle treated group reached 2,000 mm^3. Each mouse was bled at 2 hrs after the last dose and at least 50 μl of plasma was collected from each mouse. All of the collected plasma samples and retainer dosing solutions for each dose level were used for bioanalytical measurements. All tumors were also collected and weighed. One necrosis-free tumor fragment of approximately 50 mg was taken from each tumor and flash-frozen for RNA isolation. […]
The effects of in vivo SMSM treatments on pre-existing subcutaneous glioblastoma, breast, pancreatic, prostate, melanoma, lymphoma and Ewing sarcoma xenografts were assessed. […]

A673 cells = assay: Dose-response cell proliferation, crystal violet assay, 72 h; assay type: cell-based; conditions: ratio of IC50 in NHDF cells to IC50 in A673 cells
Protocol: Small molecule splicing modulators were tested in a dose-response assay using A673 cells and NHDF cells.
A673 cells or NHDF cells were first plated in 96-well plastic tissue culture plates (10,000 cells per well). The cells were treated with vehicle alone (DMSO), or increasing concentrations of SMSM compounds for 72 h. Following treatment, cell proliferation was determined using a crystal violet assay. The relative cell proliferation at each concentration was determined.

Row | Structure (SMILES) | tumor growth inhibition (TGI), in words (A673 xenografts) | IC50 (IKBKAP^Δ20 mRNA) | EC50 (IKBKAP^FL mRNA) | tumor growth inhibition (TGI), in words (A375 xenografts) | Ratio NHDF/A673 IC50 (A673 cells)
1 | CN(c1ccc(-c2ccc(-c3cn[nH]c3)cc2O)nn1)[C@@H]1C[C@H]2CCC[C@@H](C1)N2 [compound 160, 2-(6-(((1R,3s,5S)-9-azabicyclo[3.3.1]nonan-3-yl)(methyl)amino)pyridazin-3-yl)-5-(1H-pyrazol-4-yl)phenol] | led to tumor growth inhibition | < 200 nM | < 100 nM | led to tumor growth inhibition | 
2 | CN(c1ccc(-c2ccc(-c3cn[nH]c3)cc2O)nn1)[C@H]1C[C@]2(C)CC[C@](C)(C1)N2 [compound 151, 2-(6-(((1R,3s,5S)-1,5-dimethyl-8-azabicyclo[3.2.1]octan-3-yl)(methyl)amino)pyridazin-3-yl)-5-(1H-pyrazol-4-yl)phenol] | led to tumor growth inhibition |  |  | led to tumor growth inhibition | >350
3 | CN(c1ccc(-c2ccc(-c3cn[nH]c3)cc2O)nn1)[C@@H]1C[C@H]2CC[C@@H](C1)N2 [compound 138, 2-(6-(((1R,3s,5S)-8-azabicyclo[3.2.1]octan-3-yl)(methyl)amino)pyridazin-3-yl)-5-(1H-pyrazol-4-yl)phenol] |  | 201 to 1000 nM | 101 to 350 nM |  | 
